The subject of this experiment is Mycobacterium tuberculosis variant bovis. The experiment is described as follows: Antimycobacterial activity against Mycobacterium bovis BCG ATCC 35734 assessed as bacterial growth inhibition incubated for 15 days by resazurin based reduction assay. The settings on record: BCG ATCC 35734, 360 h, time 15 day. The format is functional. In general terms: The colour change of resazurin is a common sign of viable cells or microbes.

These results are taken from ChEMBL document CHEMBL5614415, “Recent advances and challenges of revolutionizing drug-resistant tuberculosis treatment” (Eur J Med Chem, 2024).

A value given as a limit tells only on which side of the number the result lay.

Usually MIC50 stands for an inhibitory concentration at the 50% level, which refers to growth in some studies and to a panel of isolates in others.

Consider `COc1cc([C@](O)(CCN(C)C)[C@@H](c2cc3cc(Br)ccc3nc2OC)c2cccc(OC)c2F)cc(OC)n1` [TBAJ-587], for which the MIC50 was below 6 ng/mL.
